# Laboratory results published in ChEMBL document CHEMBL6121006, “Marine natural product-inspired discovery of novel BRD4 inhibitors with anti-inflammatory activity” (Eur J Med Chem, 2025).
# The source made the active and inactive calls. No cut-off for these calls is given here.
# Key:
# [1] = Toxicity in C57BL/6 mouse effect on body weight at 100 mg/kg, po measured after 24 hrs; assay type: organism-based; conditions: in vivo
# RAW264.7 [2] = assay: Anti-inflammatory activity in mouse RAW264.7 cells assessed as inhibition of LPS-induced IL-6 level preincubated with compound for 2 hrs followed by LPS stimulation and measured after 22 hrs by ELISA method; assay type: functional, cell-based; conditions: dose 2.5-20 µM, time 24.0 hrs
# [3] = Toxicity in C57BL/6 mouse effect on spleen at 100 mg/kg, po measured after 24 hrs; assay type: organism-based; conditions: in vivo
# [4] = biological target: Bromodomain testis-specific protein (Homo sapiens) (UniProt Q58F21); assay: Inhibition of BRDT BD2 (unknown origin) at 1 uM incubated for 2 hrs by TR-FRET assay relative to control
# [5] = Toxicity in C57BL/6 mouse effect on heart at 100 mg/kg, po measured after 24 hrs; assay type: organism-based; conditions: in vivo
# Mus musculus [6] = assay: Antiinflammatory activity against C57BL/6 mouse acute inflammation model assessed as reduction in LPS induced lung destruction at 50 to 100 mg/kg, po pre-administered for 2 hrs followed by LPS stimulation for 6 hrs; assay type: functional, organism-based; conditions: dose 50-100 mg/kg, time 8.0 hrs
# Mus musculus [7] = assay: Antiinflammatory activity against C57BL/6 mouse acute inflammation model assessed as inhibition of LPS-induced IL-6 level at 50 to 100 mg/kg, po pre-administered for 2 hrs followed by LPS stimulation for 6 hrs by ELISA method; assay type: functional, organism-based; conditions: dose 50-100 mg/kg, time 8.0 hrs
# [8] = Toxicity in C57BL/6 mouse effect on lung at 100 mg/kg, po measured after 24 hrs; assay type: organism-based; conditions: in vivo
# [9] = biological target: T1, Bromodomain-containing protein 4 (Homo sapiens, UniProt O60885); assay: Inhibition of human recombinant BRD4 BD2 (349 to 460 residues) extracted from Escherichia coli BL21 (DE3) at 10 uM incubated for 2 hrs by TR-FRET assay relative to control
# RAW264.7 [10] = assay: Anti-inflammatory activity in mouse RAW264.7 cells assessed as inhibition of LPS-induced NO production at 10 uM preincubated with compound for 24 hrs followed by LPS stimulation by Griess reagent based analysis relative to control; assay type: functional; parameters: scale not given: the % may be the effect or the level left
# [11] = biological target: Bromodomain-containing protein 3 (Homo sapiens) (UniProt Q15059); assay: Inhibition of BRD3 BD1 (unknown origin) at 1 uM incubated for 2 hrs by TR-FRET assay relative to control
# Sequence of Bromodomain-containing protein 3 (Homo sapiens) (Q15059 2-726 limits assumed): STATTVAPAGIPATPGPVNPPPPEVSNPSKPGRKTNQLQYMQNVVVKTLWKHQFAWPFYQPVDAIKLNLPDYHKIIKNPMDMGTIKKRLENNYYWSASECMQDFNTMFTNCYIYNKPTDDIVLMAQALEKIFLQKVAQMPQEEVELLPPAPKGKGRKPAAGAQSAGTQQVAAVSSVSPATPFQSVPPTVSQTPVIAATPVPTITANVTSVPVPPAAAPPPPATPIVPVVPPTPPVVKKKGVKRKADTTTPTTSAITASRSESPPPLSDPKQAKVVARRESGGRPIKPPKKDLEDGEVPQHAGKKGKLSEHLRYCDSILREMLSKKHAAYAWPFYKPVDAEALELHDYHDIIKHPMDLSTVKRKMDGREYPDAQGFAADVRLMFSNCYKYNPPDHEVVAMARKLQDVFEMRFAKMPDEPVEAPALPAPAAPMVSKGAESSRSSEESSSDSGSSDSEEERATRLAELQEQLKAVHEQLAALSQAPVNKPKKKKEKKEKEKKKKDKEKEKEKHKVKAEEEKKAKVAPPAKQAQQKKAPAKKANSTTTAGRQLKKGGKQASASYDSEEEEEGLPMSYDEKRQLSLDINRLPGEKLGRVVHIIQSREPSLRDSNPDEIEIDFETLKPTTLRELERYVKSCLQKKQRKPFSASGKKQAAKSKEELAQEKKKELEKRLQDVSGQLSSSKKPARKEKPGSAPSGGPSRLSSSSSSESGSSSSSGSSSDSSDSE
# [12] = biological target: T1, Bromodomain-containing protein 4; assay: Inhibition of human recombinant BRD4 BD1 (42 to 167 residues) extracted from Escherichia coli BL21 (DE3) at 10 uM incubated for 2 hrs by TR-FRET assay relative to control
# THP-1 [13] = assay: Anti-inflammatory activity in human THP-1 cells assessed as inhibition of LPS-induced IL-6 expression preincubated with compound for 2 hrs followed by LPS stimulation and measured after 6 hrs by RT-qPCR analysis; assay type: functional, cell-based; conditions: dose 2.5-20 µM, time 8.0 hrs
# [14] = biological target: Transcription initiation factor TFIID subunit 1 (Homo sapiens) (UniProt P21675); assay: Inhibition of TAF1 (unknown origin) at 1 uM incubated for 2 hrs by TR-FRET assay relative to control
# [15] = biological target: T1, Bromodomain-containing protein 4; assay: Inhibition of human recombinant BRD4 BD1 (42 to 167 residues) extracted from Escherichia coli BL21 (DE3) incubated for 2 hrs by TR-FRET assay
# RAW264.7 [16] = assay: Cytotoxicity against mouse RAW264.7 cells at 20 uM measured after 24 hrs by CCK8 method; assay type: functional, cell-based
# Mus musculus [17] = assay: Antiinflammatory activity against LPS-induced C57BL/6 mouse acute inflammation model assessed as improvement of excessive inflammatory cell infiltration in liver at 50 to 100 mg/kg, po pre-administered for 2 hrs followed by LPS stimulation for 6 hrs; assay type: functional, organism-based; conditions: dose 50-100 mg/kg, time 8.0 hrs
# RAW264.7 [18] = assay: Anti-inflammatory activity in mouse RAW264.7 cells assessed as inhibition of LPS-induced TNF-alpha expression preincubated with compound for 2 hrs followed by LPS stimulation and measured after 6 hrs by RT-qPCR analysis; assay type: functional, cell-based; conditions: dose 2.5-20 µM, time 8.0 hrs
# RAW264.7 [19] = assay: Anti-inflammatory activity in mouse RAW264.7 cells assessed as inhibition of LPS-induced TNF-alpha level preincubated with compound for 2 hrs followed by LPS stimulation and measured after 22 hrs by ELISA method; assay type: functional, cell-based; conditions: dose 2.5-20 µM, time 24.0 hrs
# Mus musculus [20] = assay: Antiinflammatory activity against LPS-induced C57BL/6 mouse acute inflammation model assessed as reduction of renal injury at 100 mg/kg, po pre-administered for 2 hrs followed by LPS stimulation for 6 hrs; assay type: functional, organism-based; conditions: time 8.0 hrs
# [21] = biological target: CREB-binding protein (Homo sapiens) (UniProt Q92793); assay: Inhibition of CREBBP (unknown origin) at 1 uM incubated for 2 hrs by TR-FRET assay relative to control
# Sequence of CREB-binding protein (Homo sapiens) (Q92793 2-2442 limits assumed): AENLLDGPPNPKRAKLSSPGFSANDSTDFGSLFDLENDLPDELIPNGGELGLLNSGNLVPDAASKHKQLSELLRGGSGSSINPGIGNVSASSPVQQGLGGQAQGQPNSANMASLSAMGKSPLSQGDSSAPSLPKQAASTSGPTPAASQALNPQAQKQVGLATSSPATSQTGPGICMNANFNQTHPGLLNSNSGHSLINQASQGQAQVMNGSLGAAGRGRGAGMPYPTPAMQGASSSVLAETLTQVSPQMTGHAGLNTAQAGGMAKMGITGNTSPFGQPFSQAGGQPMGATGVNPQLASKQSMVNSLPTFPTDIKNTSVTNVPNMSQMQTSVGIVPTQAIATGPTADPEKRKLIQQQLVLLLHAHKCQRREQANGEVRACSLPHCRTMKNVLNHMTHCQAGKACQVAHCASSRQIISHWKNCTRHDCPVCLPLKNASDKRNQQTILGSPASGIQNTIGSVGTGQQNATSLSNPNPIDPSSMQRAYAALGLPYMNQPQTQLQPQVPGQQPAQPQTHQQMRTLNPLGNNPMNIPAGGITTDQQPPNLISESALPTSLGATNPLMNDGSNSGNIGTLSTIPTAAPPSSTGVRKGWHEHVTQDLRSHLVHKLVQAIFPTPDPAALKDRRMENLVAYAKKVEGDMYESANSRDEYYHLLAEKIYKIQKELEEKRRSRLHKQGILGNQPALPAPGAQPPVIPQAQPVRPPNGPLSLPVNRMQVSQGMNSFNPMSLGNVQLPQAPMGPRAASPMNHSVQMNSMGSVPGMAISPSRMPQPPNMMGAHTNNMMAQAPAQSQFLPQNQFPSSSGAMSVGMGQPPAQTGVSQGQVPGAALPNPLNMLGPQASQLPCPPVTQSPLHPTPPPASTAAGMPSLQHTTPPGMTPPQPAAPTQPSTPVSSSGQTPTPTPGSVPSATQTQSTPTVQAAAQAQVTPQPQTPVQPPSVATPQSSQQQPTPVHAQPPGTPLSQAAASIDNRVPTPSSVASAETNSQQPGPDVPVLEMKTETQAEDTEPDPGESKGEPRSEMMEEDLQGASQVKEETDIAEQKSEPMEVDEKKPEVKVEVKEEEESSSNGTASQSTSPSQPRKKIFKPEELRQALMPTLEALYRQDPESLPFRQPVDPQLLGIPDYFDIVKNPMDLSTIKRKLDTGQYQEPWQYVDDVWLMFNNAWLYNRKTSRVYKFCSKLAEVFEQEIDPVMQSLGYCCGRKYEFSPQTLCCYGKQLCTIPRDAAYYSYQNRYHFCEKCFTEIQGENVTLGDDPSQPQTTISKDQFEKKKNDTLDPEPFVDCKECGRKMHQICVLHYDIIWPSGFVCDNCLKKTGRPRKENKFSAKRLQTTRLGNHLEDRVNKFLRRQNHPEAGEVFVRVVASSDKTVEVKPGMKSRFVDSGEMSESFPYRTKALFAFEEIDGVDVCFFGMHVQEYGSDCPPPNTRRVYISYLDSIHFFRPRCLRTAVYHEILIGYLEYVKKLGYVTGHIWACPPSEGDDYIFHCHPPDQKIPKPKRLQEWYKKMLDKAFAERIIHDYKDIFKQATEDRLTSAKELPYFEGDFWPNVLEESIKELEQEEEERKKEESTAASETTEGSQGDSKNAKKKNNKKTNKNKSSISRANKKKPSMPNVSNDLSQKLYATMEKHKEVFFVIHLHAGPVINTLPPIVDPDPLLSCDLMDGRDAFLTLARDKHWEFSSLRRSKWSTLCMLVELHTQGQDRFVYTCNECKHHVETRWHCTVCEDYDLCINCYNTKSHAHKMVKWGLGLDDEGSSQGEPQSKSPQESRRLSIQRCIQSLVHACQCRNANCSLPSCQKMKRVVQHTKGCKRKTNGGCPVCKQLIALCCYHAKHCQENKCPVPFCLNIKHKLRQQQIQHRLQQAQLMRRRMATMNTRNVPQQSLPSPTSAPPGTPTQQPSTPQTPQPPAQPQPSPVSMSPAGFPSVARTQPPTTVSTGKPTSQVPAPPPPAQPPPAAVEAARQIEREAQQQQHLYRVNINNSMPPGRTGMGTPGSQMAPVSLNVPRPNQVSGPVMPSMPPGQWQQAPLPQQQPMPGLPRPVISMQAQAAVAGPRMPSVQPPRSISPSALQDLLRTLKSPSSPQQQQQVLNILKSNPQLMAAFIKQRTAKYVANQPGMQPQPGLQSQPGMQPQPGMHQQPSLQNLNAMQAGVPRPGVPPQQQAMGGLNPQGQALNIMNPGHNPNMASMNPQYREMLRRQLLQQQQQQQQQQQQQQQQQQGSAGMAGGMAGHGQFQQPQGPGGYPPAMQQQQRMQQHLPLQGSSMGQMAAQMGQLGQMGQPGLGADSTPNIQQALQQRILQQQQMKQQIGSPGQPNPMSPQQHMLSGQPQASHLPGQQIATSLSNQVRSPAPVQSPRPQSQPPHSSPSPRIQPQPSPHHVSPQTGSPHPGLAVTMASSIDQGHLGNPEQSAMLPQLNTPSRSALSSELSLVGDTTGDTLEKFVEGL
# THP-1 [22] = assay: Anti-inflammatory activity in human THP-1 cells assessed as inhibition of LPS-induced TNF-alpha level preincubated with compound for 2 hrs followed by LPS stimulation and measured after 22 hrs by ELISA method; assay type: functional, cell-based; conditions: dose 2.5-20 µM, time 24.0 hrs
# Mus musculus [23] = assay: Antiinflammatory activity against LPS-induced C57BL/6 mouse acute inflammation model assessed as improvement of internal brush boundary structure at 100 mg/kg, po pre-administered for 2 hrs followed by LPS stimulation for 6 hrs; assay type: functional, organism-based; conditions: time 8.0 hrs
# [24] = biological target: Bromodomain-containing protein 2 (Homo sapiens) (UniProt P25440); assay: Inhibition of BRD2 BD2 (unknown origin) at 1 uM incubated for 2 hrs by TR-FRET assay relative to control
# Sequence of Bromodomain-containing protein 2 (Homo sapiens) (P25440 whole entry, looked up): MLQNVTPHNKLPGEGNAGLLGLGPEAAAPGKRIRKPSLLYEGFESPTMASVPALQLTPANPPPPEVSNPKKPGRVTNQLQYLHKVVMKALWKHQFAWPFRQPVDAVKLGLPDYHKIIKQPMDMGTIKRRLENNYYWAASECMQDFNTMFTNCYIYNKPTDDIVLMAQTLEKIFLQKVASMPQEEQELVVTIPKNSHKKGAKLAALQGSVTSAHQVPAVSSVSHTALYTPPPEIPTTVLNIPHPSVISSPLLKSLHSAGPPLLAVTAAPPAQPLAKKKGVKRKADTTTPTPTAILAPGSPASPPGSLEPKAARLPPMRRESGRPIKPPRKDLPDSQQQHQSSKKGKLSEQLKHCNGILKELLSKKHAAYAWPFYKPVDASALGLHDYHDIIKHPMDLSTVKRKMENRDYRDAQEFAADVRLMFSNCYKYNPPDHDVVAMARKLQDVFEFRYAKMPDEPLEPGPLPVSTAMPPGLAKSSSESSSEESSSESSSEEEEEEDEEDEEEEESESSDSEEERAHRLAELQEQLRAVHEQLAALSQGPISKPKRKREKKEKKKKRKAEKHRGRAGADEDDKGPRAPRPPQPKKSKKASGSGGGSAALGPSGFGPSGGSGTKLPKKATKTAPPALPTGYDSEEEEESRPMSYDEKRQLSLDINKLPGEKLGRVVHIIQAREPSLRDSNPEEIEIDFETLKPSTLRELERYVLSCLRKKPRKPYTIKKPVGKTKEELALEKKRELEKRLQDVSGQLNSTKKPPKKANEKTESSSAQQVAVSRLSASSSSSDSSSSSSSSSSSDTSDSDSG
# Mus musculus [25] = assay: Antiinflammatory activity against C57BL/6 mouse acute inflammation model assessed as reduction in LPS induced lung pulmonary hemorrhage at 50 to 100 mg/kg, po pre-administered for 2 hrs followed by LPS stimulation for 6 hrs; assay type: functional, organism-based; conditions: dose 50-100 mg/kg, time 8.0 hrs
# Mus musculus [26] = assay: Antiinflammatory activity against LPS-induced C57BL/6 mouse acute inflammation model assessed as decrease in number of interstitial vacuoles at 100 mg/kg, po pre-administered for 2 hrs followed by LPS stimulation for 6 hrs; assay type: functional, organism-based; conditions: time 8.0 hrs
structure (smiles),measurement,setting,value
COc1ccc(/C=C/c2nc3cc(OC)cc(OC)c3c(=O)[nH]2)cc1,Activity,[1],Non-toxic
same,Activity,RAW264.7 [2],Dose-dependent-effect
same,Activity,[3],Non-toxic
same,inhibition,[4],7%
same,Activity,[5],Non-toxic
same,Activity,Mus musculus [6],Active
same,Activity,Mus musculus [7],Active
same,Activity,[8],Non-toxic
same,inhibition,[9],89%
same,Activity,RAW264.7 [10],106%
same,inhibition,[11],25%
same,inhibition,[12],81%
same,Activity,THP-1 [13],Dose-dependent-effect
same,inhibition,[14],5%
same,IC50,[15],3.81 µM
same,Activity,RAW264.7 [16],inactive
same,Activity,Mus musculus [17],Active
same,Activity,RAW264.7 [18],Dose-dependent-effect
same,Activity,RAW264.7 [19],Dose-dependent-effect
same,Activity,Mus musculus [20],Active
same,inhibition,[21],15%
same,Activity,THP-1 [22],Dose-dependent-effect
same,Activity,Mus musculus [23],Active
same,inhibition,[24],30%
same,Activity,Mus musculus [25],Active
same,Activity,Mus musculus [26],Active
